# Data: patent US11084822B2, “Salts and processes of preparing a PI3K inhibitor” (Incyte Corporation, priority 2015, dated 2021)
# Columns and labels:
# Assay type in all cases: biochemical
# [1] = system: PI3K; experiment: PI3K inhibition according to at least one assay described herein
# [2] = molecular target: PI3Kδ (Homo sapiens (Human), UniProt O00329); experiment: Example A2: PI3K Enzyme Assay ([γ-33P]ATP filter plate); conditions: assay of Example A2
# Experimental: PI3K isoforms α, β, δ and γ are purchased from Millipore (Bedford, Mass.).
# The kinase reactions are conducted in clear-bottom 96-well plate from Thermo Fisher Scientific in a final volume of 24 μL. Inhibitors are first diluted serially in DMSO and added to the plate wells before the addition of other reaction components. The final concentration of DMSO in the assay is 0.5%. […] The reaction mixture is prepared containing 50 μM PIP2, kinase and varying concentration of inhibitors. […] Reactions are incubated for 180 minutes and terminated by the addition of 100 μL of 1 M potassium phosphate pH 8.0, 30 mM EDTA quench buffer. A 100 μL aliquot of the reaction solution are then transferred to 96-well Millipore MultiScreen IP 0.45 μm PVDF filter plate (The filter plate is prewetted with 200 μL 100% ethanol, distilled water, and 1 M potassium phosphate pH 8.0, respectively). […] After drying by aspiration and blotting, the plate is air dried in an incubator at 37° C. overnight. Packard TopCount adapter (Millipore) is then attached to the plate followed with addition of 120 μL Microscint 20 scintillation cocktail (Perkin Elmer) in each well. After the plate sealing, the radioactivity of the product is determined by scintillation counting on Topcount (Perkin-Elmer). […]
# [3] = molecular target: JAK2 (Homo sapiens (Human), UniProt O60674); experiment: JAK2 versus JAK1 (Assay A at 1 mM ATP); conditions: ratio JAK2/JAK1, Assay A at 1 mM ATP
# [4] = molecular target: JAK1 (Homo sapiens (Human), UniProt P23458); experiment: JAK1 IC50 by the method of Assay A at 1 mM ATP
# Chain of JAK1 (P23458 whole entry, species assumed): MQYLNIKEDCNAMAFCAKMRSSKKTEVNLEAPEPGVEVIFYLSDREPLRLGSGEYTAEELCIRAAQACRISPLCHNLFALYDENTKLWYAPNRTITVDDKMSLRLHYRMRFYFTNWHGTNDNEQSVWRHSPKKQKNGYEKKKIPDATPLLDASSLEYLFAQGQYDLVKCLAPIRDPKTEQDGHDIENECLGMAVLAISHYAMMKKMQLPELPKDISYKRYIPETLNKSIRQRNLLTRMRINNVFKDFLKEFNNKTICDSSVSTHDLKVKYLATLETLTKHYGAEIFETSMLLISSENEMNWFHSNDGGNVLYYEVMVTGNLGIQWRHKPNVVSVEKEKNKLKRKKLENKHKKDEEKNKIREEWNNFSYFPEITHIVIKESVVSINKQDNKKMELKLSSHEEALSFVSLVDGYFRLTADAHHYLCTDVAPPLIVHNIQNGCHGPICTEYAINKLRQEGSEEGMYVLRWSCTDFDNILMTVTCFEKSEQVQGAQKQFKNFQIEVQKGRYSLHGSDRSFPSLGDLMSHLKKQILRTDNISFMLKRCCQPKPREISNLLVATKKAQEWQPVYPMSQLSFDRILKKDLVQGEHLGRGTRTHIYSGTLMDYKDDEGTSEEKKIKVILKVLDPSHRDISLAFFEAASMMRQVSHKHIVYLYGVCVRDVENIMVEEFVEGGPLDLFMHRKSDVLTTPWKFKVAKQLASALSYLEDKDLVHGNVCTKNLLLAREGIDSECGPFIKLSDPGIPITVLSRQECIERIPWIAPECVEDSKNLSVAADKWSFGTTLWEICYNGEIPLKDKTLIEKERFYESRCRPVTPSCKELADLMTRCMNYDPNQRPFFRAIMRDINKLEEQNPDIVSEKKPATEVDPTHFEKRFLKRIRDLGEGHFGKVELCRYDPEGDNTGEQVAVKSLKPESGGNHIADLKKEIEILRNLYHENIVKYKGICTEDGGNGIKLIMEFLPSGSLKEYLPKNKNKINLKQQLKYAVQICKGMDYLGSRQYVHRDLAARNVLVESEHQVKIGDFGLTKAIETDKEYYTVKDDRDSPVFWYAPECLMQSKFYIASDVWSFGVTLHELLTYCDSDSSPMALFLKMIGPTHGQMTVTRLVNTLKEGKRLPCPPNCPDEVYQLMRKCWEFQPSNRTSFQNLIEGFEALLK
# Chain of JAK2 (O60674 whole entry, species assumed): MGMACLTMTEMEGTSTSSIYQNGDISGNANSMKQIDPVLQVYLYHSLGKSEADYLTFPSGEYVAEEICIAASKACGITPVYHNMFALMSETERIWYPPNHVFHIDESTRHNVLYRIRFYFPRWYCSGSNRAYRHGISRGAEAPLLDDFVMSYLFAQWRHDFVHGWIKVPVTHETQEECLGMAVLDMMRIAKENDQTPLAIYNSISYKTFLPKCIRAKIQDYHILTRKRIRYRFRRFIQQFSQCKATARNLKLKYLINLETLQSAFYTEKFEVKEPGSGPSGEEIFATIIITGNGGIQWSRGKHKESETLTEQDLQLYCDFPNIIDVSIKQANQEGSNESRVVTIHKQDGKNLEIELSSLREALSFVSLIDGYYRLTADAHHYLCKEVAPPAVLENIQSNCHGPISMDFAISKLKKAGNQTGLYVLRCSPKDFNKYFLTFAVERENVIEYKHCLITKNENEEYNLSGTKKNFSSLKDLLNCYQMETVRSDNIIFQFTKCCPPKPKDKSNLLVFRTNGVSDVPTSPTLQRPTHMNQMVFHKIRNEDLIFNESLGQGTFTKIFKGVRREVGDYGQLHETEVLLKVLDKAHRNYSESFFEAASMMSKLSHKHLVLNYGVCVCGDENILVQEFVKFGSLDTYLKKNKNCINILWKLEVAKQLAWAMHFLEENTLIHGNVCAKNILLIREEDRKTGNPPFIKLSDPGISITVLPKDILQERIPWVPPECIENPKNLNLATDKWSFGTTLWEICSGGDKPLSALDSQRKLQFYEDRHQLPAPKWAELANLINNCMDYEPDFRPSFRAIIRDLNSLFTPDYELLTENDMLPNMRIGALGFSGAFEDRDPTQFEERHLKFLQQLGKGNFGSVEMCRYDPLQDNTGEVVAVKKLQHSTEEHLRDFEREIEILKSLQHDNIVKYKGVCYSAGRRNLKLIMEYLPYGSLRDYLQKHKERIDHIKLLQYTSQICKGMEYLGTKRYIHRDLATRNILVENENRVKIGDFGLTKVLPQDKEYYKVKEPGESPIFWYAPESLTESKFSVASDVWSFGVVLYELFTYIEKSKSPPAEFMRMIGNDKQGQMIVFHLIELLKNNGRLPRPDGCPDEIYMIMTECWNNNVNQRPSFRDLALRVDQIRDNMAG
# Chain of PI3Kδ (O00329 whole entry, species assumed, canonical isoform): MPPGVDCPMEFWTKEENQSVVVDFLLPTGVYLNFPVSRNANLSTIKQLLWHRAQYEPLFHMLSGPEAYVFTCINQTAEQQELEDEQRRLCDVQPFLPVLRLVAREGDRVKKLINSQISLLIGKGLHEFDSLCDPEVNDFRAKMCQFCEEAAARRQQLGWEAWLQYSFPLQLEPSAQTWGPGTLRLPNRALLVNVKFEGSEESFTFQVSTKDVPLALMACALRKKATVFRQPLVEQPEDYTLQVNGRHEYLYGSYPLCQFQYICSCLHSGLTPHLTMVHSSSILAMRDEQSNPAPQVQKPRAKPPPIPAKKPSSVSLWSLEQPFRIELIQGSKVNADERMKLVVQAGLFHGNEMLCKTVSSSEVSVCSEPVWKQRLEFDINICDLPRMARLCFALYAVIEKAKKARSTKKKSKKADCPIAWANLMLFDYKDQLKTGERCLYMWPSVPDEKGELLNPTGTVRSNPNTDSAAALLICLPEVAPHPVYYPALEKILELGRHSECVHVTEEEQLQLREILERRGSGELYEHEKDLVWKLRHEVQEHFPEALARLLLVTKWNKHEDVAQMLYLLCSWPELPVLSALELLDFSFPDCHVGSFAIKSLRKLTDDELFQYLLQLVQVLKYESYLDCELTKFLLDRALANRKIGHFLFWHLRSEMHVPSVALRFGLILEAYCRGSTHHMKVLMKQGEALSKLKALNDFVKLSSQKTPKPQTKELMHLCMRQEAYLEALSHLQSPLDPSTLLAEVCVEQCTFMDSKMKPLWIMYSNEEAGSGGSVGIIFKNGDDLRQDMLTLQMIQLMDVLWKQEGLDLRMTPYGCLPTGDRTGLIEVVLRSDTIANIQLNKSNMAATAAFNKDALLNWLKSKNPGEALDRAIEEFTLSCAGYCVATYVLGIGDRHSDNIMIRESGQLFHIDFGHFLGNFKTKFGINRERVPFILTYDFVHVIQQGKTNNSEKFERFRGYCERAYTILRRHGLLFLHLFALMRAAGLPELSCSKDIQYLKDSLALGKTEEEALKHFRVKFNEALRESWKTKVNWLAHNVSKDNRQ
# Chain of PI3Kδ (P27986 whole entry partner, species assumed, canonical isoform): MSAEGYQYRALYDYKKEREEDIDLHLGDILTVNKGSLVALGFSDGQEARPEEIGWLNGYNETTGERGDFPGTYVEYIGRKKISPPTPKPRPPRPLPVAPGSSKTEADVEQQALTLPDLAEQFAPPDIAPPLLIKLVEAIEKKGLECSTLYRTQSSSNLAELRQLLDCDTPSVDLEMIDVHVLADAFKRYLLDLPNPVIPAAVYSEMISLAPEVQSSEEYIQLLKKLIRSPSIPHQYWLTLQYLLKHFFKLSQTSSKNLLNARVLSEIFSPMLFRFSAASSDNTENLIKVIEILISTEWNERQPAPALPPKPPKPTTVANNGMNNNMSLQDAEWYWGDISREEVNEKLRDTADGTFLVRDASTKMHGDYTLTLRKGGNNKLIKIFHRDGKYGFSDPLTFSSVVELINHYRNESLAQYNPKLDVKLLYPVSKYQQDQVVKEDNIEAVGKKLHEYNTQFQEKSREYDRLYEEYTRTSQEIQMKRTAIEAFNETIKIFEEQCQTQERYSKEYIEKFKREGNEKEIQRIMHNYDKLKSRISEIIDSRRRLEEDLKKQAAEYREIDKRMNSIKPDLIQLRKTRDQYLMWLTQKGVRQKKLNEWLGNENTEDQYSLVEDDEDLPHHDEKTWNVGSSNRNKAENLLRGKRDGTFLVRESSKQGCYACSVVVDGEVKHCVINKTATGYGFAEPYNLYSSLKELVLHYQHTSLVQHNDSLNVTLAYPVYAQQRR
SMILES,PI3K inhibition [1],selectivity for PI3Kδ [2],JAK2/JAK1 [3],IC50 [4]
"CCOc1c([C@H](C)n2nc(C)c3c(N)ncnc32)cc(Cl)c(F)c1[C@@H]1CNC(=O)C1.Cl [(R)-4-(3-((S)-1-(4-amino-3-methyl-1H-pyrazolo[3,4-d]pyrimidin-1-yl)ethyl)-5-chloro-2-ethoxy-6-fluorophenyl)pyrrolidin-2-one hydrochloride]",found to be PI3K inhibitors,selective inhibitor for PI3Kδ,,
"C[C@@H](O)c1nc2cnc3ccsc3c2n1[C@H]1CC[C@H](CC#N)OC1 [Compound 1, ((2R,5S)-5-{2-[(1R)-1-hydroxyethyl]-1H-imidazo[4,5-d]thieno[3,2-b]pyridin-1-yl}tetrahydro-2H-pyran-2-yl)acetonitrile]",,,>10,< 100 nM
